Test results reported in patent US10682386B2, “Compositions for prevention of adhesions and other barrier applications” (Arch Biosurgery, Inc., priority 2006, dated 2020).

Assays:
[1] = system: branch of the superior sagittal sinus in the brains; assay: Transection of a branch of the superior sagittal sinus in the brain, hemostasis; assay type: in vivo; details: hamsters; 20 μl of a 1% peptide solution at the site of the sinus branch transection; all cases
Protocol: (§1) Animals were anesthetized with an i.p. injection of ketamine (80 mg/kg) and xylazine (8 mg/kg). All surgical procedures were conducted under an operating microscope. Twenty-two animals, including 10 adult hamsters and 12 young adult female Spraque-Dawley rats (200-250 g), were treated with either iced saline or 20 μl of a 1% peptide solution at the site of the sinus branch transection. The material was prepared by dissolving RADA 16-1 (n-RADARADARADARADA-c; SEQ ID NO: 1) peptide in sterile water, and the peptide-containing solution was applied to the injured tissue with a 31 gauge needle attached to a 2 cc syringe.
(§2) The experiment was videotaped with a time stamp and was replayed one frame at a time to evaluate the length of time required for the peptide solution to form a gel, which effectively impeded bleeding. Hemostasis was assessed visually, and “complete hemostasis” was defined as the complete lack of movement of blood from the wound site.

[2] = system: liver, lobus sinister lateralis; assay: Liver cut, rostral to caudal, vessel of relatively low pressure, hemostasis; assay type: in vivo, adult rat; details: 1% peptide solution applied topically and in the cut
Text: Profuse bleeding ensued. A 1% peptide solution (RADA16-1) (SEQ ID NO: 1) was applied to the cut and in its vicinity using a 27 gauge needle and 4 cc syringe. All bleeding stopped within 10 seconds. A series of pictures was obtained. […] After treating the site with 1% peptide solution (applied topically and in the cut), all bleeding stopped within 10 seconds. A clear area was observed between the two halves of the lobus sinister lateralis. This procedure was repeated several times with the same result.

[3] = system: intestine at the level of the duodenum; assay: Perforation of the intestine at the level of the duodenum, leakage of gastric fluid; assay type: in vivo, adult rat
Protocol: An additional volume of 2% peptide solution was injected into the duodenum at the level of the injury. […] In the control cut at the level of the duodenum, the wall of the intestine inverted and gastric fluids continued to leak from the site of injury when left untreated.

[4] = system: muscle of the hind limb (porteocaudalis and musculus tibialis cranialis); assay: Muscle trauma, hind limb muscle and limb wounds, hemostasis; assay type: in vivo, rat
Text: The spinotrapezius muscles on the back of the rats were exposed and a deep cut was made in the muscle, after which 1% peptide solution (RADA16-I) (SEQ ID NO: 1) was applied in the cut. Within 10 seconds, all bleeding had stopped. With the application of iced saline alone, control animals continued to bleed after 20 seconds. […] However when an artery or vein was transected 2% or higher material was needed to bring about hemostasis. […]

femoral artery = assay: Femoral artery transection, hemostasis; assay type: in vivo, adult rats
Protocol: The sciatic nerve and the adjacent femoral artery were exposed in adult rats, and the femoral artery was transected. Twelve rats were treated by application of 20 μl of a 1% solution of RADA 16-I (SEQ ID NO: 1) peptide to the site of transection using a glass pipette attached to a syringe body, while controls were treated by applying cold saline to the site of transection. […] The saline control cases continued to bleed until the experiment was terminated at 110 seconds.
A series of pictures was taken in an adult rat in which the femoral artery was transected. In the picture taken first, the sciatic nerve and the femoral artery are exposed. […] The assembled material can be suctioned off the site easily if desired.

liver = assay: 4 mm liver punch biopsy, adhesions; assay type: in vivo, adult rats; details: punch filled with 3%; survival 2 d, 7 d, 14 d, 6 w, 8 w
Protocol: The liver of 18 adult rats was exposed under deep anesthesia, the upper right lobe was punched by a 4 mm punch, then the wound was treated with 3% NHS-1. Animals were allowed to survive 2 d, 7 d, 14 d, 6 w, and 8 w respectively, then the animals were anesthetized again and the punched lobe of liver was dissected and processed for H&E staining. In addition a set of controls were treated with either saline or cautery. 4 mm liver punch biopsy experiment with control and filling of punch with 3% RADA. All of the controls had adhesions on both surfaces while the treated had no adhesions. In the 2 week, 6 week and 8 week controls adhesions were cut away on the upper and lower surfaces. On all the 3% RADA treated cases there were no adhesions on with the upper or lower surface of the liver.

[5] = system: lobus sinistras laterialis of the liver; assay: Removal of ¼ of the liver lobe, topical treatment of the margin, hemostasis; assay type: in vivo
Protocol: In other experiments ¼ of the lobe in the lower right quadrant of the lobus sinistras laterialis was removed, and the margin was treated with a topical application of 2% peptide (RADA16-I) (SEQ ID NO: 1) to the site of injury. Bleeding stopped in less than 10 seconds.

[6] = system: branch of the superior sagittal sinus in the brains; assay: Transection of a branch of the superior sagittal sinus in the brain, hemostasis; assay type: in vivo, rats
Protocol: as §1, §2
Durations were measured from the start of application of peptide solution to the completion of hemostasis after transection of the veins leading to the sinus in the brains of adult rats. […] In the saline controls, cessation of bleeding was never achieved. The saline control experiment was terminated at the same time point in order to prevent the animals from bleeding to death.

[7] = system: liver, lobus sinister lateralis and a major branch of the portal vein; assay: Liver transverse cut with major branch of the portal vein, higher pressure, hemostasis; assay type: in vivo, rat
Protocol: A series of pictures illustrate the experiment. […] The cut was treated with 4% peptide solution applied topically and in the cut. All bleeding stopped within 10 seconds. […] Thus, application of 4% peptide solution brings about complete hemostasis in a high pressure bleeding environment in less than 10 seconds. […] This procedure was repeated several times with the same result.

spinotrapezius muscles = assay: Muscle trauma, cut in spinotrapezius muscle on the back, hemostasis; assay type: in vivo, rat; details: 1% peptide solution applied in deep cut, 1-2 cm incisions
Text: The spinotrapezius muscles on the back of the rats were exposed and a deep cut was made in the muscle, after which 1% peptide solution (RADA16-I) (SEQ ID NO: 1) was applied in the cut. Within 10 seconds, all bleeding had stopped. With the application of iced saline alone, control animals continued to bleed after 20 seconds.

[8] = system: skin and subcutaneous tissue; assay: 4 mm punch biopsy of skin and subcutaneous tissue, healing test; assay type: in vivo
Protocol: The regions from which the biopsies were taken were either treated by a single application of self-assembling peptide (RADA16-I) (SEQ ID NO: 1) solution or were left untreated. The wounds were left unbandaged. A series of pictures of a 4 mm punch biopsy healing test in which injured animals were treated with the self assembling peptide and compared to matching cases with no treatment illustrates the results. The wounds were photographed on day 0, day 1, day 4, and day 7. […] Treatment with the peptide appeared to speed healing by as much as 5 days in some cases.

superior sagittal sinus = assay: Complete transection of the superior sagittal sinus, hemostasis; assay type: in vivo; details: control animals that continued to bleed after 20 seconds
Text: A higher concentration of peptide (e.g., approximately 3%-4%) was used in the latter experiment in order to achieve hemostasis. The three saline control cases continued to bleed after 20 seconds.

Substance: n-RADARADARADARADA-c [RADA16-I]
- time to complete hemostasis after application of the peptide solution [1]: ≤ 10 s
- time until all bleeding stopped [2]: ≤ 10 s
- progression of the intestinal wall inversion ([3]; control cut treated 15 minutes after the injury): stopped the progression
- leakage from the injury site ([3]; control cut treated with peptide solution 15 minutes after the injury): stopped all leakage
- leakage of gastric fluids from the intestine ([3]; site treated with 2% peptide solution): all leakage of gastric fluids from the intestine stopped
- hemostasis in limb wounds ([4]; between 1% to 100% peptide applied): hemostasis was achieved in all cases
- concentration of material needed to bring about hemostasis ([4]; when an artery or vein was transected): ≥ 2%
- time to hemostasis (femoral artery; 20 μl of a 1% solution at the site of transection, twelve rats, all treated cases): less than 10 seconds
- time at which complete hemostasis was observed (femoral artery; adult rat, series of pictures): about five
- hemostasis after replacement of the cold saline with the peptide solution (femoral artery; control animals that bled until 110 seconds): almost immediate achievement of complete hemostasis
- time complete hemostasis was maintained (femoral artery; duration of the test): 1 h
- adhesions on the upper or lower surface of the liver (liver): no adhesions
- hemostasis at the margin of the liver after the peptide was removed ([5]; 2% peptide, removed one minute later): complete hemostasis was achieved
- time until bleeding stopped ([5]; topical application of 2% peptide to the margin): less than 10 seconds
- hemostasis five seconds after the peptide solution was applied ([6]; adult rat, one of the veins of the superior sagittal sinus transected, series of pictures): Complete hemostasis was achieved
- average duration from start of application of peptide solution to completion of hemostasis ([6]; adult rats, transection of the veins leading to the sinus): 8.3 s
- time to complete hemostasis after application of the peptide solution ([6]; rats, 20 μl of a 1% peptide solution at the site of the sinus branch transection, all cases): ≤ 10 s
- hemostasis ([7]; 1% solution): partial cessation of bleeding
- hemostasis ([7]; 2% peptide solution): complete hemostasis was also achieved
- hemostasis ([7]; 3% peptide solution): complete hemostasis was also achieved
- bleeding ten minutes later ([7]; 4% peptide solution): still no bleeding
- bleeding under physical stress (lower part of lobe pulled downward) ([7]; 4% peptide solution): did not bleed
- hemostasis after excess peptide structure was wiped away ([7]; 30 seconds after treatment): hemostasis was maintained
- time until all bleeding had stopped (spinotrapezius muscles): ≤ 10 s
- shrinkage of the wound site versus untreated ([8]; all cases): happened faster
- healing of treated wounds versus no treatment ([8]; single application, contraction of the wound site as early as day 1): healed much faster
- speeding of healing ([8]; single application, in some cases): ≤ 5 days
- hemostasis after iced saline was removed and the peptide solution was applied (superior sagittal sinus): complete hemostasis almost immediately
